Test results from patent publication US4624950A, “Method for treating atherosclerosis hyperlipidema, lipid deposition on arterial walls, or raising the ratio of high density lipoprotein cholesterol to total cholesterol in serum” (Nissan Chemical Industries Ltd., priority 1983, dated 1986).

Key:
[1] = test system: experimental atherosclerosis in rabbits induced by cholesterol diet; test: Effect on experimental atherosclerosis in rabbits induced by cholesterol diet (Test 4); format: in vivo, rabbit (male)
Procedure: The effect of the compound of the formula I on experimental atherosclerosis in rabbits induced by cholesterol diet
Twenty-five male rabbits weighing 1.8-2.0 kg were used. They were fed with basic chow (Nippon clea, CR-3) for a stabilizing period of 5 days. After this period, they were fed with the chow containing 1% cholesterol, 100 g per head a day for a week (7 days) and plasma cholesterol was measured using a blood sample collected from acuricle vein.
According to the results of cholesterol values measured, 14 animals of high cholesterol plasma level were selected. They were divided into two groups to have nearly equal means and S.D. values of plasma cholesterol. One group of 7 rabbits was fed with the chow containing 1% cholesterol and another group of 7 rabbits was fed with the chow containing 1% cholesterol and 0.1% compound of the formula I in an amount of 100 g per head a day for 8 weeks.
Rabbits were sacrificed at the end of 8 weeks. Aortic arch and thoracic aorta were excised, and macroscopical changes were examined using the Sudan III stain method. According to the results of gross observation of the internal surface stained by Sudan III, the ratios of the atherosclerotic plaque area (the area stained by Sudan III) to the whole internal surface area were calculated. The ratio of inhibition of atherosclerosis of the compound of the formula I was obtained by comparing the average value with the value of the control.

[2] = test system: emulsion-induced hyperlipidemic rats; test: Antihyperlipidemic activity in emulsion-induced hyperlipidemic rats (Test 1); format: in vivo, rat (male S.D.); conditions: 300 mg/kg/day p.o., 3 days
Procedure: The daily dose of the compound of the formula I is from 0.01 to 3.0 g, preferably from 0.1 to 1.5 g, for an adult. It is administered from once to three times per day. The dose may of course be varied depending upon the age, the weight or the condition of illness of the patient. Now, the usefulness of the compound of the formula I as an antiatherosclerotic agent will be shown by tests. In the following tests, the fractionation of lipoproteins was conducted by a dextran sulfate-MgCl2 precipitation method.
Cholesterol in serum was measured by means of a cholesterol measuring kit (Cholesterol C-Test Wako, manufactured by Wako Junyaku Co., Ltd.), and cholesterol in HDL was measured by means of NC Hi-Set, manufactured by Nippon Chemiphar Co., Ltd. The quantitative analysis of triglyceride was conducted by means of a triglyceride measuring kit (Triglyceride C-II-Test Wako, manufactured by Wako Junyaku Co., Ltd.).
Further, the change rate in the following Tables, was calculated by the following equation.
Change rate(%)=(A-B/A)×100
where A is the amount of serum lipids (mg/dl) of the control group, and B is the amount of serum lipids (mg/dl) of the group to which the therapeutic agent was administered.
The antihyperlipidemic activity in emulsion-induced hyperlipidemic rats
Male S.D. rats weighing 80-90 g (4 weeks old) were used. They were divided into groups of 5 to 6 rats each. The test compounds suspended in 0.5% CMC-Na(carboxymethyl cellulose sodium salt) were given to the rats in a daily dose of 4 ml/kg via stomach tube every 10:00 a.m. After 30 min., lipids emulsion having the following composition was orally given to the rats in an amount of 2.5 ml per rat. During the experimental period of 3 days, the rats were fed on a standard commercial diet and water ad libitum. […] The total cholesterol and triglyceride, and HDL cholesterol were measured.

[3] = 0.1% in 1% cholesterol chow, 8 weeks, vs control
[4] = 0.1% in 1% cholesterol chow, 100 g per head a day, 8 weeks

`CN1C(=S)SC(c2ccccc2)N(C)C1c1ccccc1` (stereo not shown) [Compound of the formula I, 3,5-dimethyl-4,6-diphenyl-tetrahydro-2H-1,3,5-thiadiazine-2-thione] was tested, and the “Ratio of inhibition of atherosclerosis (Ratio of Improvement), Aortic arch” value [1, 3] was 13.8%, the “Ratio of inhibition of atherosclerosis (Ratio of Improvement), Thoracic aorta” value [1, 3] was 67.7% and the “Ratio of inhibition of atherosclerosis (Ratio of Improvement), Total aorta” value [1, 3] was 45.3%. The “Atherosclerotic plaque area stained by Sudan III, Aortic arch” value [1, 4] was 77.7%, the “Atherosclerotic plaque area stained by Sudan III, Thoracic aorta” value [1, 4] was 11.0% and the “Atherosclerotic plaque area stained by Sudan III, Total aorta” value [1, 4] was 26.3%. For the same compound, the “Inhibition of experimental atherosclerosis (in words)” value ([1]; 1% cholesterol diet) was “inhibits experimental atherosclerosis”, the “Serum lipid, HDL-Chol” value [2] was 22.1 mg/dL and the “Serum lipid, TG” value [2] was 97.4 mg/dL. The “Serum lipid, Total Chol” value [2] was 145 mg/dL, the “Change rate, HDL-Chol” value ([2]; vs control) was “+80.6%” and the “Change rate, TG” value ([2]; vs control) was -36%. For the same compound, the “Change rate, Total Chol” value ([2]; vs control) was -45.0%.
